A word on the IC50: it is the point on the concentration scale where inhibition reaches its midpoint.

Each structure is given as a SMILES string. Entries after “also recorded” stand apart in the source; their conditions may differ. Where two headings read alike, the source gives them in different places.

The source of these data is patent US9045401B2, “Methods for treating or ameliorating a melanoma and killing melanoma cells” (THE REGENTS OF THE UNIVERSITY OF CALIFORNIA, priority 2007, dated 2015).

In one data set the test system is HUVEC cells. As to the kind of experiment: endothelial cell tube formation on Matrigel. Format: cell-based, human. On the procedure: Endothelial Cell Tube Formation. 96-well plates were coated with 200 uL matrigel per well and stored at 4° C. until use. HUVEC cells were harvested and cell suspensions were prepared at a density of 200,000/ml., and added at 100 ul per well to the plates. […] The plates were incubated at 37° C. under standard incubator conditions and the results were observed microcopically for tube formation.

A further data set deals with NB7 neuroblastoma cells. Nature of the data set: XTT cell proliferation assay. The conditions noted are these: Homo sapiens, anti-proliferative effect, FIG. 6, caspase 8 deficient. The class given is cell-based. On the procedure: (§1) Cell lines. Cells and cell lines were maintained in either DMEM or RPMI supplemented with 10% FCS. The caspase-deficient NB7 neuroblastoma cells have been previously described (33). C8-deficient and reconstituted jurkat cells were provided by Dr. Steve Hedrick (UCSD). Silencing of Caspase-8 gene expression in the A549 cells was performed through the use of delivering shRNA in a lentiviral format. Briefly 293 T cells were transfected with caspase-8, (Open Biosystems) or scrambled (Addgene) shRNAs in pLK0.1 lentiviral vector, together with lentiviral packaging plasmids (PMLDL, VSV-G and RSV-REV) using fugene6. The ratio of target ShRNAs and packaging plasmids was ShRNA/PMLDL/VSV-G/RSV-REV, 10/10/6/4 μg. Lentiviral supernatants from 293 T cells were harvested after 48 hours and used to infect A549 cells. Viral constructs were incubated for 24 h with A549 cell lines prior to replacing media with selective media containing puromycin (1 μg/ml). […]
(§2) Cytotoxicity Assay. Cytotoxicity of ScA was assessed using the XTT cell proliferation assay. […] The plates were then incubated under standard tissue culture conditions until the control wells (DMSO) reached an OD value between 1.0-1.5. as measured at 450 nm using a microtiter plate reader. The cell viability-drug dilution profiles were obtained from sigma plots, and drug concentrations which inhibited growth by 50% were calculated from multiple runs. […]
(Tetrazolium assays rely on reduction of a dye to a coloured formazan, in cell work by metabolically active cells.)

For the next data set, the system named is A549 cells. Nature of the data set: confocal microscopy of ceramide and caspase 8. The class given is cell-based, human. The method, then:
Confocal microscopy. […] After treatment, the cells were fixed 10 minutes at room temperature with 4% PFA, washed twice with PBS, permeabilized 2 minutes at room temperature with 0.1% triton in PBS and blocked for 30 minutes with sterile 2% BSA in PBS. The staining was performed at room temperature for 2 hours (h), with mouse monoclonal anti-human ceramide (Alexis) and rabbit anti-human caspase 8 (BD Pharmingen) antibodies followed by secondary goat anti-mouse ALEXA FLUOR568™ and goat anti-rabbit ALEXA FLUOR488™ antibodies (Invitrogen). The blue DNA binding dye TOPRO-3™ (Molecular Probes) was added together with the secondary antibodies. The cells were washed three times with PBS between the different incubation steps and the incubation with the secondary fluorescently labeled antibodies was performed in the dark. All antibodies were diluted in PBS. Confocal images were recorded on a Nikon ECLIPSE C1™ confocal microscope.

The test system of data set [1] is NB7 caspase 8 positive cells. As to the kind of experiment: XTT cell proliferation assay. The class given is cell-based, human. The method, then:
as §1, §2

Data set [2] has as its system HUVEC primary endothelial cells. Nature of the data set: 72 h XTT assay for Huvec cell proliferation. The class given is cell-based, human. On the procedure:
FIG. 2A illustrates a microtiter plate 72 hour (h) XTT assay for Huvec cell proliferation (2500 cells/well seeded), showing serial dilutions of structurally diverse marine natural compounds. […] FIG. 2B graphically illustrates the data for this study.
Cytotoxicity Assay. Cytotoxicity of ScA was assessed using the XTT cell proliferation assay. Briefly cells were plated on 96 well plates (5,000 per well) and incubated over night at 37° C. to allow for attachment and spreading. After 24 h, ScA was added from a DMSO stock, previously frozen at −80C as added directly from serial dilutions in DMSO at concentrations ranging from 100 uM to 100 fM. After 72 h, XTT (Aldrich Chemicals) was added to a final concentration of 250 ug/well. The plates were then incubated under standard tissue culture conditions until the control wells (DMSO) reached an OD value between 1.0-1.5. as measured at 450 nm using a microtiter plate reader. The cell viability-drug dilution profiles were obtained from sigma plots, and drug concentrations which inhibited growth by 50% were calculated from multiple runs. (IC50)

For data set [3], the system named is Transgenic Tg(fli1:EGFP) zebrafish embryos. As to the kind of experiment: blood vessel formation in zebrafish. The class given is in vivo. To be noted: for blood vessel growth and angiogenesis: 80 nM to 3 μM in the water, dose-dependent; for viability / acute toxicity to the fish: 24 hour period of the study. On the procedure:
Zebrafish Experiments. Blood vessel formation in Zebrafish: Transgenic Tg(fli1:EGFP) zebrafish embryos were purchased from www.zfin.org as reported elsewhere (34). Adult fish and embryos were maintained according to “Zebrafish—A Practical Approach” (35). ScA compound in DMSO stock solution was diluted directly into the water and zebrafish intersegmental vessels were imaged using Nikon c1-si confocal microscope after the times specified. Raw image datasets were processed using IMARIS 3D™ image analysis software. All animal procedures were conducted in accordance with all appropriate regulatory standards under protocol #S06008 approved by the University of California San Diego (UCSD) Institutional Animal Care and Use Committee.

Data set [4] relates to chick chorioallantoic membrane. As to the kind of experiment: bFGF-induced angiogenesis in chick chorioallantoic membrane. The class given is in vivo. The conditions noted are these: local introduction, 100 ng bFGF disks, 72 hours. On the procedure: FIG. 31(A-F): Transgenic Tg(fli1:EGFP) zebrafish embryos in which GFP is expressed in endothelial cells were incubated without (A) or with increasing concentrations of ScA: 80 nM in FIG. 31(B), 160 nM in FIG. 31(C), 300 nM in FIG. 31(D) 1.6 μM in FIG. 31(E) or 3 μM in FIG. 31(F), and blood vessel morphology recorded by fluorescence microscopy. FIG. 31(G) Filter disks impregnated with 100 ng of bFGF were placed on the chorioallantoic membrane of eleven day old chicks to induce angiogenesis in the absence or presence of ScA, as shown. After 72 hours (h), disks were removed and the vascularity of the underlying chorioallantoic membrane determined by direct counting of branch points using a dissecting microscope. FIG. 31(H): NB7 neuroblastoma cells lacking caspase 8 (filled bar) or NB7-C8 cells reconstituted for caspase 8 expression (open bars) were seeded into ten day old chick chorioallantoic membranes to form tumors. After 72 hours, ScA was added topically to each growing tumor mass. Tumors were harvested and resected on day 8, and mass (wet weight) determined. Data shown is the mean±SD (N=8-12).
Chick Chorioallantoic membrane studies. The CAM studies were performed using 10 day old chick embryos as we've previously described (36). […]

For `C=CC/C=C/N(C)C(=O)CCCCCCCC/C=C/[C@H](CSSC[C@@H](/C=C/CCCCCCCCC(=O)N(C)/C=C/CC=C)NC(C)=O)NC(C)=O` [somocystinamide A, Somocystinamide A], the “tube formation of HUVEC/matrigel” value in the data set on HUVEC cells (1 μM, 100 μM and 10 nM, FIG. 3) is “inhibits tube formation”. Also, in the data set on HUVEC cells (48 hours, FIG. 30B, listed as ScA), the “endothelial cell tube formation” value was “potently blocked endothelial cell tube formation; also recorded: endothelial cell tube formation was disrupted in dose-dependent manner”. For the same compound, the IC50 was 810 nM in the data set with NB7 neuroblastoma cells; 12 nM in data set [1] (Homo sapiens, anti-proliferative effect, FIG. 6); 0.004 nM in data set [2] (Homo sapiens, HUVEC, anti-proliferative effect, FIG. 6, read-out: IC50); “picomolar range” in data set [2] (cultured endothelial cells, XTT 72 hours). Further, the “colocalization of ceramide and caspase 8” value with A549 cells (0.10 μM, 30 minutes or six hours) was “induced colocalization of ceramide and caspase 8”. The cell surface ceramide entry with A549 cells (300 nM, 30 minutes after treatment) is “accumulation, and aggregation, of cell surface ceramide”. Besides, the “sensitivity of the caspase 8 positive cells to ScA” value in data set [1] (relative to NB7 cells) is 100 times. Moreover, the “cytotoxicity, concentration range” value in data set [2] (72 h XTT, 2500 cells/well, FIG. 2) is recorded as “cytotoxicity in the nanomolar concentration range”. Also, the “blood vessel growth and angiogenesis” value in data set [3] was “potently inhibited angiogenesis”; in data set [3] (listed as ScA), “blocked blood vessel growth and angiogenesis”. The figures for the “viability / acute toxicity to the fish” value in data set [3] and in data set [3] (listed as ScA) were “without acute toxicity” and “all of the fish remained viable”, respectively. In data set [4], the growth factor-induced angiogenesis result is recorded as “potently blocked growth factor-induced angiogenesis”.
